Consider six compounds from paper PMC10377586 (Biomolecules, 2023).

Bounds are passed on as bounds.

For one assay, the target named is T1, rat A1 (rA1) ARs (Rattus norvegicus, UniProt P25099).
T1 construct: using rat brain cortical membrane preparations for A1; tissue Pel Freez; host or cells: rat brain cortex membranes
T1 sequence (P25099 1-326): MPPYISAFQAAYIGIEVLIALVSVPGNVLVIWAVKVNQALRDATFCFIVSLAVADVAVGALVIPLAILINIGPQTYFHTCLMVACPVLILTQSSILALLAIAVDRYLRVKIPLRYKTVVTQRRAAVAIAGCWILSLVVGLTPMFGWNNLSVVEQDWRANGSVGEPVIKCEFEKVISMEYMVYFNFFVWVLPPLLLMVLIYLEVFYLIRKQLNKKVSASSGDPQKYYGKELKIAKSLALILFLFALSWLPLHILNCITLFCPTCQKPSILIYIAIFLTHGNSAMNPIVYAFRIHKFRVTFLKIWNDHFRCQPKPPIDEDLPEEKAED
Nature of the assay: Radioligand binding [3H]CCPA, rat brain cortical membranes. Conditions: read-out: rA1 [3H]CCPA Ki ± SEM. The procedure:
(§1) The final compounds were tested in radioligand binding assays to evaluate their affinity for all four ARs subtypes (see Table 2). Rat brain cortical membrane preparations were used as a source of rat A1 (rA1) ARs, and rat brain striatal membrane preparations served as a source of rat A2A (rA2A) ARs. For A2B- and A3AR assays, membrane preparations of Chinese hamster ovary (CHO) cells recombinantly expressing either human A2B (hA2B) or human A3 (hA3) ARs were employed.
(§2) Adenosine receptor radioligand binding assays were performed as previously described using rat brain cortical membrane preparations for A1 and rat brain striatal membrane preparations for A2A AR assays. Frozen rat brains (unstripped) were obtained from Pel Freez, Rogers, AR, USA. For assays at human AR subtypes, cell membranes of CHO cells recombinantly expressing the respective receptor were used. The following compounds were employed as radioligands: A1: [^3H]2-chloro-N^6-cyclopentyladenosine ([^3H]CCPA); A2A: [^3H]3-(3-hydroxypropyl)-7-methyl-8-(m-methoxystyryl)-1-propargylxanthine ([^3H]MSX-2); A2B: [^3H]8-(4-(4-(4-chlorophenyl)piperazine-1-sulfonyl)phenyl)-1-propylxanthine ([^3H]PSB-603); A3: [^3H]phenyl-8-ethyl-4-methyl-(8R)-4,5,7,8-tetrahydro-1H-imidazo[2,1-i]purine-5-one ([^3H]PSB-11). Initially, a single high concentration of compound was tested (1 µM). For potent compounds, full concentration–inhibition curves were determined using six to ten different concentrations of test compound spanning three orders of magnitude. At least three independent experiments were performed. Data were analyzed using GraphPad PRISM program version 4.0 or higher (Graph Pad, San Diego, CA, USA).

A further assay has as its target T2, human A3 (hA3) ARs (Homo sapiens, UniProt P0DMS8).
T2 construct: expressed in transfected cells; host or cells: CHO cells (membranes)
T2 sequence (P0DMS8 1-318): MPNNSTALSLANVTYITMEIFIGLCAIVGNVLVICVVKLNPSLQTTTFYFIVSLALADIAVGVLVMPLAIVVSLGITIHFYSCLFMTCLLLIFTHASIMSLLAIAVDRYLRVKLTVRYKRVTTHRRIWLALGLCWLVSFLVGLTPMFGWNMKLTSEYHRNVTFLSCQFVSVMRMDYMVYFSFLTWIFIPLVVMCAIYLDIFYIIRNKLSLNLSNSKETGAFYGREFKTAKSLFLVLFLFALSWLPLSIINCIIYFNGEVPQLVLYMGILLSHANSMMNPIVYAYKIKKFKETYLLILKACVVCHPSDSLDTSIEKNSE
The assay is described as follows: Radioligand binding [3H]PSB-11, CHO cell membranes. Conditions: for Ki: CHO cell membranes, read-out: hA3 [3H]PSB-11 Ki ± SEM; for inhibition at 1 µM: read-out: hA3 [3H]PSB-11 % inhibition ± SEM at 1 µM. The procedure:
as §1, §2

The target of a further assay is T3, human MAO-A (Homo sapiens, UniProt P21397).
T3 construct: purchased Sigma Aldrich M7316
T3 sequence (P21397 1-527): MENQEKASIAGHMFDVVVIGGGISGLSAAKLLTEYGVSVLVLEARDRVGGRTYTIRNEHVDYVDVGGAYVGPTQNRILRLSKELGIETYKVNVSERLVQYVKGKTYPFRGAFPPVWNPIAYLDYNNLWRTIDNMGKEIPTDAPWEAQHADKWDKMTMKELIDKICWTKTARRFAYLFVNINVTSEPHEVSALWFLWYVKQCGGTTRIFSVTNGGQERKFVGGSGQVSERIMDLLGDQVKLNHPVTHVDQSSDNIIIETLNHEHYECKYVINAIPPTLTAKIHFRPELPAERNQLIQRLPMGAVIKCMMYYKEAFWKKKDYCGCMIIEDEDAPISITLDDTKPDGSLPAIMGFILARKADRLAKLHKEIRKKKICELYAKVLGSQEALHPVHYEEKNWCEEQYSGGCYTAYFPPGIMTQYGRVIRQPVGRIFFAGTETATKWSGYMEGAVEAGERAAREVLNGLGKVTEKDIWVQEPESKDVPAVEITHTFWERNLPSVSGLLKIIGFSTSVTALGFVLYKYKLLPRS
The assay is described as follows: Amplex Red monoamine oxidase assay, MAO-A. As to conditions: for IC50: human recombinant MAO-A, read-out: MAO-A IC50 ± SEM; for inhibition at 1 µM: read-out: MAO-A % Inhibition ± SEM at 1 µM. The assay is classed as biochemical. As to the method:
The final compounds were evaluated in vitro for their human MAO-B (hMAO-B) inhibitory potencies, and selected structures were also investigated for human MAO-A (hMAO-A) inhibition.
Inhibition activity of compounds at MAO enzyme isoforms was measured via a fluorometric method using the Amplex Red Monoamine Oxidase Assay (ThermoFisher Scientific, Waltham, MA, USA #A12214) in a 96-well plates. Human recombinant MAO-B and MAO-A enzymes (Sigma Aldrich, St. Louis, MO, USA #M7441 and #M7316) were used. The assays were conducted as previously described.

A further assay deals with T4, human PDE4B1 (Homo sapiens, UniProt Q07343).
T4 construct: purchased BPS Biosciences
T4 sequence (Q07343 whole entry): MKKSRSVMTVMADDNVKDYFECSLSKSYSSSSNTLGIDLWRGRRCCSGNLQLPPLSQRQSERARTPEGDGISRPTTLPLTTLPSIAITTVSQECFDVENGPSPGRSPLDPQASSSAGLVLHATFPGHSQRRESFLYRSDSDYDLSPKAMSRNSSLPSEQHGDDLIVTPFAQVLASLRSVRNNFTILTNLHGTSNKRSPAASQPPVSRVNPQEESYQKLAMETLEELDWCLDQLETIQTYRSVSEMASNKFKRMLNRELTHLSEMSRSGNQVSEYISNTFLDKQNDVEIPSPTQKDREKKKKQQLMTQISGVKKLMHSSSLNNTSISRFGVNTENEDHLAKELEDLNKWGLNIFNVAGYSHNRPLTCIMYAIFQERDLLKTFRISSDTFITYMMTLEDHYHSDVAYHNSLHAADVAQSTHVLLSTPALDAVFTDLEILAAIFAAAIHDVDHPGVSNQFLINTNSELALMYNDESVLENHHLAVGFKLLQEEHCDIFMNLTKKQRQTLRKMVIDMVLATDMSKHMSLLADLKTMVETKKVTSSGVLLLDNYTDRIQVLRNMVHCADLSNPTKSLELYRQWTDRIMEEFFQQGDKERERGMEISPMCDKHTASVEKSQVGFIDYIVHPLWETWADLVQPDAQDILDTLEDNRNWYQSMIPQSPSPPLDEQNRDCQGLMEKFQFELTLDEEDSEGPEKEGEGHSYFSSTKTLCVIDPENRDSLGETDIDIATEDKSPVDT
Nature of the assay: PDElight HTS cAMP phosphodiesterase assay, PDE4B1. Conditions: for IC50: read-out: PDE 4B1 IC50 ± SEM; for inhibition at 10 µM: read-out: PDE 4B1 % Inhibition ± SEM at 10 µM. It counts as biochemical. As to the method:
Further biological evaluation of the presented compound library was performed determining inhibitory potencies against selected human PDE isoforms, namely, PDE4 and PDE10 (for results see Table 3).
Tested and reference compounds were dissolved in dimethyl sulfoxide (DMSO) at a concentration of 10 mM and further diluted in assay buffer (10 mM Tris-HCl, 10 mM magnesium chloride and 0.05% Tween-20; pH 7.4). Inhibition of human PDE10A and 4B1 was measured using PDElight HTS cAMP phosphodiesterase assay kit (Lonza, Basel, Switzerland) according to manufacturer’s recommendations. Then, 10 ng of PDE10A and 5 ng of PDE4B1 (BPS Biosciences, San Diego, CA, USA) in appropriate buffer was incubated with reference and tested compound for 20 min. […] Then PDELight AMP Detection Reagent was added and incubated 10 min. All reactions were carried out at 37 °C in 96 white-walled, half-area-well plates (PerkinElmer). Luminescence was measured in a multifunction plate reader (POLARstar Omega, BMG Labtech, Ortenberg, Germany). The percentage of inhibition and IC50s were computed using GraphPad Prism Version 6.0 software.

On to `CCCn1c(=O)c2c(nc(NCCc3ccc(O)c(O)c3)n2CCC)n(CCC)c1=O` [Compound 12, 8-((3,4-Dihydroxyphenethyl)amino)-1,3,7-tripropyl-3,7-dihydro-1H-purine-2,6-dione], for which the Ki at rat A1 (rA1) ARs is 130 ± 31 nM; on human A3 (hA3) ARs, over 1000 nM. Besides, the figures for the inhibition at 1 µM at human A3 (hA3) ARs and at human MAO-A were 25% and 57%, respectively. The IC50 was about 1000 nM on human MAO-A and 14500 ± 480 nM at human PDE4B1.
With `CCCCn1c(=O)c2c(nc(NCCc3ccc(O)c(O)c3)n2CCC)n(CCCC)c1=O` [Compound 13, 1,3-Dibutyl-8-((3,4-dihydroxyphenethyl)amino)-7-propyl-3,7-dihydro-1H-purine-2,6-dione], the Ki on rat A1 (rA1) ARs is 100 ± 15 nM. In addition, on human A3 (hA3) ARs, the Ki is over 1000 nM and the inhibition at 1 µM turned out to be 17%. Further, on human MAO-A, the IC50 is over 1000 nM and the inhibition at 1 µM was found to be 36%. Besides, on human PDE4B1, the inhibition at 10 µM turned out to be 28% and the IC50 is over 10000 nM.
Regarding `Cn1c(=O)c2c(nc3n2CCCN3CCc2ccc(O)c(O)c2)n(C)c1=O` [Compound 20a, 9-(3,4-Dihydroxyphenethyl)-1,3-dimethyl-6,7,8,9-tetrahydropyrimido[2,1-f]purine-2,4(1H,3H)-dione], the Ki at rat A1 (rA1) ARs is at least 10000 nM. At human A3 (hA3) ARs, the inhibition constant (Ki) is over 1000 nM and the inhibition at 1 µM is -6%. On human MAO-A, the IC50 is over 1000 nM and the inhibition at 1 µM was 29%. Further, at human PDE4B1, the inhibition at 10 µM came out at 44% and the IC50 is over 10000 nM.
Turning to `Cn1c(=O)c2c(nc3n2CCCCN3CCc2ccc(O)c(O)c2)n(C)c1=O` [Compound 20b, 10-(3,4-Dihydroxyphenethyl)-1,3-dimethyl-7,8,9,10-tetrahydro-1H-[1, 3]diazepino[2,1-f]purine-2,4(3H,6H)-dione], on rat A1 (rA1) ARs, the Ki is 1050 ± 170 nM. On human A3 (hA3) ARs, the Ki is over 1000 nM and the inhibition at 1 µM is -2%. On human MAO-A, the IC50 was over 1000 nM and the inhibition at 1 µM worked out at 44%. For the same compound, at human PDE4B1, the inhibition at 10 µM came to 45% and the IC50 is over 10000 nM.
With `CCCn1c(=O)c2c(nc3n2CCCN3CCc2ccc(O)c(O)c2)n(CCC)c1=O` [Compound 21, 9-(3,4-Dihydroxyphenethyl)-1,3-dipropyl-6,7,8,9-tetrahydropyrimido[2,1-f]purine-2,4(1H,3H)-dione], the figures for the Ki at rat A1 (rA1) ARs and on human A3 (hA3) ARs were 70 ± 5 nM and over 1000 nM, respectively. Also, the inhibition at 1 µM at human A3 (hA3) ARs came to 26%; at human MAO-A it was 61%. In addition, the IC50 is about 1000 nM at human MAO-A and 16500 ± 320 nM on human PDE4B1.
With `CCCCn1c(=O)c2c(nc3n2CCCN3CCc2ccc(O)c(O)c2)n(CCCC)c1=O` [Compound 22, 1,3-Dibutyl-9-(3,4-dihydroxyphenethyl)-6,7,8,9-tetrahydropyrimido[2,1-f]purine-2,4(1H,3H)-dione], the Ki at rat A1 (rA1) ARs came to 53 ± 8 nM. Moreover, the inhibition constant Ki on human A3 (hA3) ARs was 676 ± 143 nM. Besides, at human MAO-A, the IC50 is over 1000 nM and the inhibition at 1 µM was 43%. Further, on human PDE4B1, the inhibition at 10 µM worked out at 24% and the IC50 was over 10000 nM.
